Measurements: patent publication US12458647B2, “Macrocyclic derivative and use thereof” (Guangzhou Joyo Pharmatech Co., Ltd., priority 2022, dated 2025)

Key:
[1] = test system: AsPC-1 cells; assay: In vitro AsPC-1 cell proliferation experiment (10 days, 3D CellTiter-Glo); type: cell-based; settings: 10 days culture
Experimental: RPMI1640 medium, penicillin/streptomycin antibiotics were purchased from Gibco, and fetal bovine serum was purchased from Hyclone. 3D CellTiter-Glo (cell viability chemiluminescent detection reagent) reagent was purchased from Promega. The AsPC-1 cell line was purchased from ATCC, Envision multilabel plate reader (PerkinElmer).
AsPC-1 cells were seeded in an ultra-low adsorption 96-well U-shaped plate, with 80 μL of cell suspension per well, containing 1,000 AsPC-1 cells. The plate was incubated overnight in a carbon dioxide incubator.
The test compound was diluted by 5-fold to 8 concentrations with a pipette, i.e., from 2 mM to 25.6 nM and replicate wells were set up for the experiment. 78 μL of culture medium was added to the intermediate plate, then 2 μL of the gradient diluted compound was transferred into each well of the intermediate plate according to the corresponding position. After mixing well, 20 μL of each well was transferred to the cell plate. […] Another cell plate was prepared, and the signal value was read as the maximum value (the maximum value in the following equation) on the day of dosing for data analysis.
100 μL of cell viability chemiluminescent detection reagent was added to the cell plate and incubated at room temperature for 30 minutes to stabilize the luminescence signal. A multilabel plate reader was used for reading. […]

[2] = test system: SW620 cells; assay: In vitro cell proliferation experiment (5 days), SW620; type: cell-based; settings: SW620, 5 days; read-out: Inhibitory Activity IC50
Experimental: (§1) RPMI 1640 medium, DMEM, Ham's F12 medium, F12K medium, IMDM and penicillin/streptomycin antibiotics were purchased from Gibco, fetal bovine serum was purchased from Hyclone, Envision multilabel plate reader (PerkinElmer). […]
(§2) The test compound was diluted by 5-fold to 8 concentrations with a pipette, i.e., from 2 mM to 25.6 nM, and replicate wells were set up for the experiment. […] Another cell plate was prepared, and the signal value was read as the maximum value (the maximum value in the following equation) on the day of dosing for data analysis.
(§3) 50 μL of cell viability chemiluminescent detection reagent was added to the cell plate and incubated at room temperature for 30 minutes to stabilize the luminescence signal. A multilabel plate reader was used for reading. […]

[3] = test system: NCI—H727 cells; assay: In vitro cell proliferation experiment (5 days), H727; type: cell-based; settings: H727, 5 days; read-out: Inhibitory Activity IC50
Experimental: as §1, §2, §3

[4] = test system: human lung bronchial benign NCI—H727 cells; assay: In vivo pharmacodynamic study, NCI-H727 subcutaneous xenograft tumor model in BALB/c nude mice; settings: gavage once daily
Experimental: To study the in vivo efficacy of a compound of the present disclosure on human lung bronchial benign NCI—H727 cells in a subcutaneous xenograft tumor model in BALB/c nude mice.
Laboratory animals: Female BALB/c nude mice, 6-8 weeks old, weighing 18-22 g; supplier Beijing Vital River Laboratory Animal Technology Co., Ltd.
(1) Cell culture: Human lung bronchial benign tumor cells were cultured in vitro in a monolayer, and the culture conditions were 10% fetal bovine serum added to Gibco RMPI1640 medium, incubated at 37° C. in a 5% CO2 incubator. Routine passage was performed twice a week with trypsin-EDTA for digestion. When the cell saturation was 80%-90% and the required number was reached, the cells were collected, counted, and inoculated.
(2) Tumour cell inoculation and grouping: 0.2 mL (2×10^6) of NCI—H727 cells (Matrigel was added in a volume ratio of 1:1) were inoculated subcutaneously into the right back of each mouse, and dosing was initiated when the mean tumor volume reached approximately 134 mm^3, with 6 animals in each group.
The vehicle was 5% DMSO/10% solutol/85% water. Control group: The vehicle was administered twice daily by gavage at a dose of 10 μL/g; treatment group: After dissolving the test compound in the vehicle, the compound was administered by gavage once daily.
(3) The tumor diameter was measured with a vernier caliper twice weekly, and the tumor volume(V) was calculated. The formula is: V=0.5a×b^2, where a and b are the long and short diameters of the tumor, respectively. The tumor inhibitory efficacy of the test compound was evaluated by the tumor growth inhibition rate (TGI). The calculation formula is: TGI %=1−(Mean tumor volume at the end of dosing in a treatment group−Mean tumor volume at the start of dosing in this treatment group)/(Mean tumor volume at the end of treatment in the vehicle control group−Mean tumor volume at the start of treatment in the vehicle control group)×100%.

[5] = 25 mg/kg on Days 1-6 and 1 mg/kg on Days 7-21, Day 21

CCn1c(-c2cc(N3CCN(C)CC3)cnc2C(C)OC)c2c3cc(ccc31)-c1csc(n1)CC(NC(=O)C1C(C)C1C)C(=O)N1NC(C(=O)OCC(C)(C)C2)C2CC1C2 (single isomer, unassigned) [Compound 6A]
IC50 [1]: 1 nM
IC50 [2]: 0.2 nM
IC50 [3]: 0.4 nM
Tumour Volume (mm^3) Day 1 ([4]; 5 mg/kg, Day 1): 134.6 mm^3
Tumour Volume (mm^3) Day 7 ([4]; 5 mg/kg, Day 7): 86.5 mm^3
Tumour Volume (mm^3) Day 14 ([4]; 5 mg/kg, Day 14): 78.5 mm^3
TGI (%) ([4]; 5 mg/kg, Day 21): 104.4%
Tumour Volume (mm^3) Day 21 ([4]; 5 mg/kg, Day 21): 51.6 mm^3
Tumour Volume (mm^3) Day 1 ([4]; 25 mg/kg on Days 1-6 and 1 mg/kg on Days 7-21, Day 1): 134.5 mm^3
Tumour Volume (mm^3) Day 7 ([4]; 25 mg/kg on Days 1-6 and 1 mg/kg on Days 7-21, Day 7): 76.8 mm^3
Tumour Volume (mm^3) Day 14 ([4]; 25 mg/kg on Days 1-6 and 1 mg/kg on Days 7-21, Day 14): 71.1 mm^3
TGI (%) [4, 5]: 103.2%
Tumour Volume (mm^3) Day 21 [4, 5]: 75.1 mm^3
